From patent US5716797A, “Stable two-part reagent for the measurement of creatine kinase activity” (Wako Pure Chemical Industries, Ltd., priority 1995, dated 1998)
Values joined by “and” are separate entries in the source; they are usually repeats but may differ in a detail not shown here. Equal entries are not always repeated. Where two headings read alike, the source gives them in different places.

System: creatine kinase (CK) in human serum
Assay: CK activity measured with enzyme solutions containing SH compounds as CK reactivator, fresh and after 1 month of storage (Example 1 / Comparative Example 1)
Type: biochemical
Conditions: for CK activity, relative value: NAC just after preparation = 100%
Description: The resulting solution was adjusted to pH 6.7 with sodium hydroxide and stored at a predetermined temperature for a predetermined period. The thus obtained solution were used as enzyme solutions.
Five fresh human serum samples were used.
To 8 μl of each sample was added 320 μl of each enzyme solution, followed by preincubation for 5 minutes. Then, 80 μl of the substrate solution was added to initiate the reaction and the change of absorbance per minute was measured for 3 minutes from 2 minutes after the addition of the substrate solution. The CK activity value was calculated from the molecular extinction coefficient of the NADPH produced.
As a measuring apparatus, an Autoanalyzer Hitachi Model 7150 was used, and the measurement was carried out at 37° C. by use of dual wavelength (λ1 =405 nm, λ2 =340 nm).
Enzyme solutions were prepared in the same manner as in Example 1 by use of the same reagents as in Example 1 except for using a predetermined concentration(s) of one or two SH compounds properly selected from the above-mentioned CK reactivators, in place of the CK reactivator(s) used in Example 1.
CK activity was measured in the same manner as in Example 1.

[1] = Sample 1, enzyme solution just after preparation, TG 100 mM, 2ME 26 mM, 2MES 26 mM, NAC 26 mM
[2] = Sample 2, enzyme solution just after preparation, TG 100 mM, 2ME 26 mM, 2MES 26 mM, NAC 26 mM
[3] = Sample 2, enzyme solution stored at 10° C. for 1 month, TG 100, 2ME 26, 2MES 26, NAC 26, L-cysteine 6.5, GSH 12, TDG 5, DTT 6.5 mM
[4] = Sample 2, enzyme solution stored at 20° C. for 1 month, TG 100, 2ME 26, 2MES 26, NAC 26, L-cysteine 6.5, GSH 12, TDG 5, DTT 6.5 mM
[5] = Sample 3, enzyme solution just after preparation, TG 100 mM, 2ME 26 mM, 2MES 26 mM, NAC 26 mM
[6] = Sample 3, enzyme solution stored at 10° C. for 1 month, TG 100, 2ME 26, 2MES 26, NAC 26, L-cysteine 6.5, GSH 12, TDG 5, DTT 6.5 mM
[7] = Sample 3, enzyme solution stored at 20° C. for 1 month, TG 100, 2ME 26, 2MES 26, NAC 26, L-cysteine 6.5, GSH 12, TDG 5, DTT 6.5 mM
[8] = Sample 4, enzyme solution just after preparation, TG 100 mM, 2ME 26 mM, 2MES 26 mM, NAC 26 mM
[9] = Sample 4, enzyme solution stored at 10° C. for 1 month, TG 100, 2ME 26, 2MES 26, NAC 26, L-cysteine 6.5, GSH 12, TDG 5, DTT 6.5 mM
[10] = Sample 4, enzyme solution stored at 20° C. for 1 month, TG 100, 2ME 26, 2MES 26, NAC 26, L-cysteine 6.5, GSH 12, TDG 5, DTT 6.5 mM
[11] = Sample 5, enzyme solution just after preparation, TG 100 mM, 2ME 26 mM, 2MES 26 mM, NAC 26 mM
[12] = Sample 5, enzyme solution stored at 10° C. for 1 month, TG 100, 2ME 26, 2MES 26, NAC 26, L-cysteine 6.5, GSH 12, TDG 5, DTT 6.5 mM
[13] = Sample 5, enzyme solution stored at 20° C. for 1 month, TG 100, 2ME 26, 2MES 26, NAC 26, L-cysteine 6.5, GSH 12, TDG 5, DTT 6.5 mM
[14] = average of 5 samples, enzyme solution just after preparation, TG 100 mM, 2ME 26 mM, 2MES 26 mM, NAC 26 mM
[15] = average of 5 samples, enzyme solution stored at 10° C. for 1 month, TG 100, 2ME 26, 2MES 26, NAC 26, L-cysteine 6.5, GSH 12, TDG 5, DTT 6.5 mM
[16] = average of 5 samples, enzyme solution stored at 20° C. for 1 month, TG 100, 2ME 26, 2MES 26, NAC 26, L-cysteine 6.5, GSH 12, TDG 5, DTT 6.5 mM
[17] = enzyme solution just after preparation
[18] = enzyme solution stored at 10° C. for 1 month
[19] = enzyme solution stored at 20° C. for 1 month
[20] = Sample 1, enzyme solution stored at 20° C. for 1 month, TG 100, 2ME 26, 2MES 26, NAC 26, L-cysteine 6.5, GSH 12, TDG 5, DTT 6.5 mM
[21] = Sample 1, enzyme solution stored at 10° C. for 1 month, TG 100, 2ME 26, 2MES 26, NAC 26, L-cysteine 6.5, GSH 12, TDG 5, DTT 6.5 mM

SMILES | retaining CK-reactivating ability for a long period of time in an aqueous solution | CK activity value [1] [IU/l] | CK activity value [2] [IU/l] | CK activity value [3] [IU/l] | CK activity value [4] [IU/l] | CK activity value [5] [IU/l] | CK activity value [6] [IU/l] | CK activity value [7] [IU/l] | CK activity value [8] [IU/l] | CK activity value [9] [IU/l] | CK activity value [10] [IU/l] | CK activity value [11] [IU/l] | CK activity value [12] [IU/l] | CK activity value [13] [IU/l] | CK activity value, Average [14] [IU/l] | CK activity value, Average [15] [IU/l] | CK activity value, Average [16] [IU/l] | CK activity, relative value [18] [%] | CK activity, relative value [19] [%] | CK activity value [20] [IU/l] | other results
OCCS [2ME, 2-mercaptoethanol] | capable of retaining CK-reactivating ability for a long period of time | 186 | 554 | 559 | 559 | 151 | 155 | 155 | 58 | 59 | 58 | 89 | 89 | 89 | 208 | 210 | 209 | 102.8 | 102.4 |  | CK activity, relative value [17]: 101.9%
O=S(=O)(O)CCS [2MES, 2-mercaptoethanesulfonic acid] | capable of retaining CK-reactivating ability for a long period of time | 184 | 553 | 548 | 542 | 151 | 147 | 148 | 58 | 55 | 55 | 88 | 85 | 87 | 207 | 204 | 203 | 99.9 | 96.3 | 181 | CK activity value: 184 IU/l; CK activity, relative value [17]: 101.4%
N[C@@H](CCC(=O)N[C@@H](CS)C(=O)NCC(=O)O)C(=O)O [GSH, reduced-form glutathione] |  |  |  |  |  |  |  |  |  |  |  |  |  |  |  |  |  | 94.1 | 81.9 |  | CK activity value, Average: 192 IU/l and 167 IU/l
N[C@@H](CS)C(=O)O [L-cysteine] |  |  |  | 437 | 175 |  | 110 | 33 |  | 42 | 12 |  | 63 | 19 |  | 158 | 58 | 77.5 | 28.4 | 52 | CK activity value [21]: 140 IU/l
O.O.OC[C@H]1O[C@@H](S)[C@H](O)[C@@H](O)[C@@H]1O.[Na].[Na] [TDG, 1-thio-β-D-glucose disodium salt dihydrate] | incapable of retaining CK-reactivating ability in a solution for a long period of time |  |  | 3 | 4 |  | 1 | 2 |  | 0 | 0 |  | 0 | 0 |  | 1 | 1 | 0.4 | 0.6 | 0 | CK activity value [21]: 0 IU/l
